From publication PMC10170656 (RSC Chemical Biology, 2023)
Entries after “also recorded” stand apart in the source; their conditions may differ.

Columns and labels:
[1] = molecular target: TDP1 (Homo sapiens, UniProt Q9NUW8); assay: biochemical; details: TDP1 IC50, Table 2: triazole, ether and phthalic acid isostere derivatives
[2] = molecular target: T1, TDP2 (Homo sapiens, UniProt O95551); type: biochemical
T1 sequence (O95551 1-362): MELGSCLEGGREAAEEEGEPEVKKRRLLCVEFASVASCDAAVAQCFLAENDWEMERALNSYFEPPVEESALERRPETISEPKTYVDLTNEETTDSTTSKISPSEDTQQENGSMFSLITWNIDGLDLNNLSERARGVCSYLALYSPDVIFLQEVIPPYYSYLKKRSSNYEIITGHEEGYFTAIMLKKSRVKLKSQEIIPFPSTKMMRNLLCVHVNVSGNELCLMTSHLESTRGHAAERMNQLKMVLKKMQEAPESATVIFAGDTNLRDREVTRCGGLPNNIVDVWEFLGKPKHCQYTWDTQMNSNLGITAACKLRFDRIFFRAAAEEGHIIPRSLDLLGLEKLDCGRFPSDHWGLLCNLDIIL

[3] = Survival curve and cytotoxicity in HCT116 cells; type: cell-based; details: human, HCT116 cells (colon cancer cell line)
[4] = system: HCT116 cells; assay: Synergistic effect of TDP1 inhibitors with camptothecin; type: cell-based, human; details: concentrations below CC50, 72 h

Chain of TDP1 (Q9NUW8 whole entry): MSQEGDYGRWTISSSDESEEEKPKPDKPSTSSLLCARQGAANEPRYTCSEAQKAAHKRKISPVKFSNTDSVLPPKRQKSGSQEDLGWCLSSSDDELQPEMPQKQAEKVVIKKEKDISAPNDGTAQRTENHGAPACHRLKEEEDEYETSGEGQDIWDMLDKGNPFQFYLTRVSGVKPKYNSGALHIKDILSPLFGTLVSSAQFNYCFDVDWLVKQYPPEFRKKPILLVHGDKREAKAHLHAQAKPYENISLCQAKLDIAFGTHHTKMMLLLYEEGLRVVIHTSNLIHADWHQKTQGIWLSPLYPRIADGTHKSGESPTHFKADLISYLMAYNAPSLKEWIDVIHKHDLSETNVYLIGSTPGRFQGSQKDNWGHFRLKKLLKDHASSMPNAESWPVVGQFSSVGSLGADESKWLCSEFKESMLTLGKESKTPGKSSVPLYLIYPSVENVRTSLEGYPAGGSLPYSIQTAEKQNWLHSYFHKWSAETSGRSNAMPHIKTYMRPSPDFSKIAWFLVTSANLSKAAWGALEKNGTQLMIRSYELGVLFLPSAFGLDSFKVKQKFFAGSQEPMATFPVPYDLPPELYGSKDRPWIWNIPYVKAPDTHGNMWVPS

Row | SMILES | IC50 [1] [µM] | inhibitory potency against TDP1 relative to TDP2 [2] [fold] | CC50 at 72 h [3] [µM] | synergy with the TOP1 inhibitor CPT [4]
1 | O=C(O)c1ccc(Nc2c(-c3ccc(CCOCc4ccc(-c5ccccc5)cc4)cc3)nc3cc(-c4ccccc4)ccn23)cc1C(=O)O [Compound 9b, 4-((2-(4-(2-([1,1'-biphenyl]-4-ylmethoxy)ethyl)phenyl)-7-phenylimidazo[1,2-a]pyridin-3-yl)amino)phthalic acid] | 11.3 ± 1.93 | – | – | –
2 | O=C(O)c1ccc(Nc2c(-c3ccccc3)nc3cc(-c4ccccc4)ccn23)cc1C(=O)O [Compound 9a, 4-((2,7-diphenylimidazo[1,2-a]pyridin-3-yl)amino)phthalic acid] | > 100 | – | – | –
3 | O=C(O)c1ccc(Nc2c(-c3ccc(CCOCc4ccc(-c5ccccn5)cc4)cc3)nc3cc(-c4ccccc4)ccn23)cc1C(=O)O [Compound 9c, 4-((7-phenyl-2-(4-(2-((4-(pyridin-2-yl)benzyl)oxy)ethyl)phenyl)imidazo[1,2-a]pyridin-3-yl)amino)phthalic acid] | 19.8 ± 1.35 | – | – | –
4 | N#Cc1ccc(-c2ccc(Cn3cc(-c4ccc(-c5nc6cc(-c7ccccc7)ccn6c5Nc5ccc(C(=O)O)cc5)cc4)nn3)cc2)nc1 [Compound 7d] | 3.3 ± 0.2 | 8 | 136 | act synergistically; also recorded: synergize
